Key:
[1] = Acute toxicity in mice, intravenous and oral (LD50); type: in vivo; conditions: mouse, in vivo, oral, read-out: Acute toxicity to mice LD 50, orally
From the text: (§1) The acute toxicities of the compounds according to the invention have been determined CD 1 mice (Charles RIVER) by intravenous and oral methods. The LD50 calculated by the quantal cumulative method of J. J. Reed and H. Muench (Amer. J. Hyg. 1938, 27, 493) are collected in the following Table: […]

[2] = test system: abdominal spasms caused in mice by 2-phenyl-1,4-benzoquinone; assay: Analgesic activity: abdominal spasms caused by intraperitoneal 2-phenyl-1,4-benzoquinone (P.B.Q.); type: in vivo; conditions: Mus musculus; mice, oral; read-out: Analgesic activity P.B.Q. AD 50
From the text: (§2) The analgesic activities have been investigated with respect to abdominal spasms caused in mice by the intraperitoneal injection of 2-phenyl-1,4-benzoquinone according to E. Siegmund, E. Cadmus and G. Lu, Proc. Soc. exp. Biol. Med., 1957, 95, 729-731. The central antiserotonin properties have been determined by the "Head-twitch" technique in mice according to S. J. Corne, R. W. Pickering and B. T. Warner, Brit. J. Pharmacol., 1963, 20, 106-120. In this test, the antiserotonin products inhibit the sudden shaking of the head induced in mice by 5-hydroxy-tryptophan, the biological precursor of serotonin.

[3] = test system: serotonin (shaking of the head induced by 5-hydroxy-tryptophan); assay: Central antiserotonin activity: Head-twitch induced by 5-hydroxy-tryptophan; type: in vivo, mice; conditions: Mus musculus; mice, oral; read-out: Antiserotonin activity Head-twitch AD 50
From the text: as §2, with “Biol. Med., 1957, 95, 729-731.” left out, “J. Pharmacol., 1963, 20, 106-120.” left out

[4] = test system: isolated duodenum of rabbit, contractions caused by acetylcholine; assay: Spasmolytic activity, neurotrope versus acetylcholine, isolated duodenum (Magnus)
From the text: (§3) The spasmolytic activities are known by means of the technique of R. Magnus (Arch. Ges. Physiol., 1904, 102, 123) on the isolated duodenum of rabbits. The spasmolytic neurotropes inhibit the contractions of the organ caused by acetylcholine, while the musculotropes prevent the spasms induced by barium chloride. The EC 50 expressed in mg/litre are collected in the following Table where EC denotes "Effective concentration".

[5] = test system: isolated duodenum of rabbit, spasms induced by barium chloride; assay: Spasmolytic activity, musculotrope versus BaCl2, isolated duodenum (Magnus)
From the text: as §3

[6] = test system: glycemia; assay: Hypoglycemiant activity, variation of glycemia after 4 days of daily oral treatment; type: in vivo, male CD rats (Charles RIVER); conditions: rat
Description: The hypoglycemiant properties have been studied on the male CD rats (Charles RIVER) weighing 200 to 250 g, in which the glycemia is controlled before treatment and then after 4 days of daily oral treatment. The seric glucose is determined by the method of W. S. Hoffmann (J. Biol. Chem., 1937, 120, 51). Groups of 10 rats are used and the hypoglycemiant activity is expressed by the percentage variation of the average glycemia of the treated animals with respect to that of the controls. If it is necessary, the statistical significance of the difference is determined by the test of the coefficient "t" of Student.

[7] = test system: mice; assay: Acute toxicity in mice, intravenous and oral (LD50); type: in vivo
From the text: as §1

| SMILES | LD50 [1] | ED50 [2] | ED50 [3] | Spasmolytic activity EC 50, neurotrope versus acetylcholine [4] | Spasmolytic activity EC 50, musculotrope versus BaCl2 [5] | hypoglycemiant properties (in words) [6] | Acute toxicity to mice LD 50, intravenous ([7]; intravenous) | Acute toxicity to mice LD 50, orally ([7]; oral) |
| --- | --- | --- | --- | --- | --- | --- | --- | --- |
| CCCN(CCC)c1nc(Cl)c(SC)c(NCCN(CC)CC)n1 [Example 5, 2-dipropylamino-4-(2'-diethylamino)-ethylamino-5-methylthio-6-chloro-pyrimidine] | 800 mg/kg | > 300 mg/kg | 100 mg/kg | 1.00 µg/mL | 0.90 µg/mL | strong hypoglycemiant properties | – | – |
| CSc1c(Cl)nc(N(C)c2ccc(Cl)cc2)nc1NCCN(C(C)C)C(C)C [Example 18, 2-N-methyl-N(4-chloro-phenyl)amino-4-(2'-diisopropyl-amino)-ethylamino-5-methylthio-6-chloro-pyrimidine] | > 900 mg/kg | > 300 mg/kg | 205 mg/kg | – | – | strong hypoglycemiant properties | – | – |
| CSc1c(NCCN(C(C)C)C(C)C)nc(N(C)c2ccccc2)nc1OCCCN(C)C [Example 30, 2-N-methyl-N-phenyl-amino-4-(2'-di-isopropyl-amino)-ethylamino-5-methyl-thio-6-(dimethylaminoethyl)-methoxy-pyrimidine] | – | – | – | – | 1.00 µg/mL | strong hypoglycemiant properties | 9.5 mg/kg | 200 mg/kg |
